How the values were obtained:
α-2A = molecular target: T1, α-2A (Homo sapiens, UniProt P08913); assay: Ki at α-2A; assay type: binding
T1 sequence (P08913 1-465): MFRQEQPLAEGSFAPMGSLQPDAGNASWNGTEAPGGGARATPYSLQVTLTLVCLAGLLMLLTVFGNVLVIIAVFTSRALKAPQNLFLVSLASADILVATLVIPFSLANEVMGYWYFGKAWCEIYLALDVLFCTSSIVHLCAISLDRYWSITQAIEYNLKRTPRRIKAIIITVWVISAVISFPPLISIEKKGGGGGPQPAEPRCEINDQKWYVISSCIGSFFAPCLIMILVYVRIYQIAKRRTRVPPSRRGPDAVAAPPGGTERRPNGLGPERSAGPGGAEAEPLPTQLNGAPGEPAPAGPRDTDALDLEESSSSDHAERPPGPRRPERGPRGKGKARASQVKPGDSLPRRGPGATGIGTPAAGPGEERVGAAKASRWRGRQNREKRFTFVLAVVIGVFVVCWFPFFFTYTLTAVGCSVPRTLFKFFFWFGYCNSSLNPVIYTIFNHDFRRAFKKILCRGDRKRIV

rat α-2B (RNG gene) = molecular target: T2, rat α-2B (RNG gene) (Rattus norvegicus, UniProt P19328); assay: RSAT assay, α-2B receptor; assay type: cell-based
T2 construct: expressed in transfected cells; host or cells: NIH-3T3
T2 sequence (P19328 1-453): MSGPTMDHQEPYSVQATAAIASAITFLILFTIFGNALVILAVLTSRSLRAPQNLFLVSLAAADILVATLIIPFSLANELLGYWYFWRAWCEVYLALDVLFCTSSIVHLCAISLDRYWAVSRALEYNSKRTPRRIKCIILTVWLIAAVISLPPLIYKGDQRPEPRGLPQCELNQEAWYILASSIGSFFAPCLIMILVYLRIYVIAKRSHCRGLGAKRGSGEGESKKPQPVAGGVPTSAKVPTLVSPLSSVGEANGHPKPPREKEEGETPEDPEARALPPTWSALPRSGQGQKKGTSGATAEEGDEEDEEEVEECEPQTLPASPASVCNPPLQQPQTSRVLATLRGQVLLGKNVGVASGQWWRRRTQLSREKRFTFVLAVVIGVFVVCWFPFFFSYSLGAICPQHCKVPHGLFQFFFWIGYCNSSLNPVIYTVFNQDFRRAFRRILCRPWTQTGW
Excerpt: Agonist and antagonist activity, including selectivity and specificity, can be characterized using any of a variety of routine assays, including, without limitation, Receptor Selection and Amplification Technology (RSAT) assays (Messier et al., Pharmacol. Toxicol. 76:308-11 (1995); Conklin et al., Nature 363:274-6 (1993)); cyclic AMP assays (Shimizu et al., J. Neurochem. 16:1609-1619 (1969)); and cytosensor microphysiometry assays (Neve et al., J. Biol. Chem. 267:25748-25753 (1992)). Such assays generally are performed using cells that naturally express only a single α-adrenergic receptor subtype, or using transfected cells expressing a single recombinant α-adrenergic receptor subtype. The adrenergic receptor can be a human receptor or homolog thereof having a similar pharmacology. As disclosed herein, RSAT assays were performed using cells transiently transfected with human α-2A (c10 gene); rat α-2B (RNG gene); human α-2C (c4 gene); bovine α-1A; hamster α-1B; and rat α-1D.
The RSAT assay measures receptor-mediated loss of contact inhibition resulting in selective proliferation of receptor-containing cells in a mixed population of confluent cells. The increase in cell number is assessed with an appropriate detectable marker gene such as β-galactosidase, if desired, in a high throughput or ultra high throughput assay format. Receptors that activate the G protein, Gq, elicit the proliferative response. α-adrenergic receptors, which normally couple to Gi, activate the RSAT response when coexpressed with a hybrid Gq protein containing a Gi receptor recognition domain, designated Gq/i5.
As an example, an RSAT assay can be performed essentially as follows. NIH-3T3 cells are plated at a density of 2×10^6 cells in 15 cm dishes and maintained in Dulbecco's modified Eagle's medium supplemented with 10% calf serum. One day later, cells are cotransfected by calcium phosphate precipitation with mammalian expression plasmids encoding p-SV-β-galactosidase (5-10 μg), receptor (1-2 μg) and G protein (1-2 μg). Carrier DNA, for example 40 μg salmon sperm DNA, also can be included to increase transfection efficiency. Fresh media is added on the following day; one to two days later, cells are harvested and frozen in 50 assay aliquots. Transfected cells are thawed, and 100 μl of cells added to 100 μl aliquots of compound to be tested, with various concentrations assayed in triplicate, for example, in 96-well plates. Incubation continues for 72 to 96 hours at 37°. After washing with phosphate-buffered saline, β-galactosidase activity is determined by adding 200 μl of chromogenic substrate (3.5 mM O-nitrophenyl-β-D-galactopyranoside/0.5% NP-40 in phosphate buffered saline), incubating overnight at 30°, and measuring optical density at 420 nm. The absorbancy is a measure of enzyme activity, which depends on cell number and reflects receptor-mediated cell proliferation. The EC50 and maximal effect (efficacy) of each drug at each receptor is determined.

[1] = test system: Sprague Dawley rats, normal and sensitized; assay: Rat model of irritable bowel syndrome (chronic visceral hypersensitivity), EMG response to colorectal distension; assay type: in vivo
Excerpt: A well-accepted model of chronic visceral hypersensitivity is described in Al-Chaer et al., Gastroenterology 119:1276-85 (2000). In brief, colons of neonatal male Sprague Dawley rats were sensitized by repeated inflation of a colonic balloon on postnatal days 8 to 21, with colonic balloons inflated to pressures ranging from 20-80 mm Hg. Three months later, the abdominal withdrawal reflex (AWR) response of the adult rats to graded colorectal distension (CRD) was quantified by electromyography (EMG) recording from the abdominal wall muscle. […] Each level of CRD was administered for 20 seconds every four minutes and repeated for a total of five times.
Groups of 8-10 normal and sensitized adult Sprague Dawley rats (approximately 3 months old) were implanted with subcutaneous minipumps to deliver either 50% DMSO or Compound 8 in 50% DMSO at a dose of 100 ug/kg/hr over a period of 7 days. The abdominal withdrawal reflex to a graded series of colorectal distensions (20, 40, 60, 80 mm Hg) was measured by abdominal EMG recording prior to pump implantation, on days 2 and 5 of the subcutaneous infusion, and 2 days, 1 week, 2 weeks, and 4 weeks after the pumps were removed.

Chung model rats = assay: Chung rat nerve ligation model, tactile allodynia reversal (Von Frey); assay type: in vivo
Experimental: The Chung rat nerve ligation model is a well accepted model of peripheral neuropathic pain. In the Chung model, partial ligation of left spinal nerves L-5 and L-6 produces a long-lasting hypersensitivity to light touch on the affected left foot. The hypersensitivity is similar to pain experienced by humans with the neuropathic condition of causalgia (Kim and Chung, Pain 50:355-363 (1992)).
Chung rat surgeries of about 20 minutes duration were performed essentially as follows. Male Sprague-Dawley rats weighing 100 to 120 grams were anesthetized with isofluorane. After shaving and preparing the surgical site with betadine, an incision was made from thoracic vertebra XIII down toward the sacrum, and muscle separated from spinal vertebra (left side) at the L4-S2 levels. The L6 vertebra were located, and the transverse process carefully removed with a small rongeur to visually identify the L4-L6 spinal nerves. L5 and L6 spinal nerves were isolated and tightly ligated with 6-0 silk thread; the wound was sutured after complete hemostasis was confirmed. A small amount of antibiotic ointment was applied to the incised area before transferring the animals to a plastic recovery cage under a regulated heat-temperature lamp. Animals were not treated with any topical or local anesthetics post-operatively.
Assessment of pain in Chung model rats was performed by applying a light tactile stimulus (Von Frey hair) to the affected surgical paw as follows. A 50% pain threshold was established by applying the Von Frey hair in an up-and-down manner to the plantar surface of the surgical paw with just enough force to bend them. A positive response was recorded if the paw was withdrawn sharply. The 50% paw withdrawal threshold was determined using the method of Dixon et al., Ann. Rev. Pharmacol. Toxicol. 20:441-462 (1980). The post-drug threshold was compared to the pre-drug threshold, and the precent reversal of tactile sensitivity calculated based on a normal threshold of 15.1 grams. The results were expressed as % allodynia reversal, reflecting the percentage reversal of pain threshold relative to a normal rat (100%).
Chung surgeries were performed, and pain assessed as described above. Drugs administered via osmotic minipump were delivered as follows. ALZET (Cupertino, Calif.) minipumps (Model #1007D) were implanted subcutaneously on the rats' back between the shoulder blades. Pumps were filled with test solution prior to surgery, which was performed with aseptic procedures and sterilized surgical instruments. After anesthetization with isoflorane and midline incision between the shoulder blades through the muscle, a subcutaneous pocket was exposed. The minipump was inserted into the exposed pocket, before stapling the wounds closed and allowing animals to recover under a warming light.
ALZET osmotic minipumps (model 1007D) hold a total volume of 100 μl and delivered drug at the set rat of 0.5 μl per hour the indicated time period. Drugs were administered at the indicated rate, typically 100 μg/hr/kg, dissolved in 50% DMSO, with the concentration of drug in the pump varied depending on animal weight. […]

Bennett model rats = assay: Bennett partial sciatic nerve ligation model, cold allodynia; assay type: in vivo, rat; settings: osmotic minipump 0.1 mg/hr/kg for four days; during treatment and more than three weeks following pump removal
Experimental: The α-2B/C selective agonist Compound 8 was tested in a second rat nerve injury model of neuropathic pain, the Bennett partial sciatic nerve ligation model. This rat model produces a peripheral mononeuropathy with disorders of pain sensation similar to those seen in man (Bennett and Xie, Pain 33:87-107 (1988)). In the Bennett model, nerve injury is created by loosely tying constrictive ligatures around the sciatic nerve, causing degeneration of nerve distal to the constriction. Allodynia and hyperalgesia are produced by the constriction injury in addition to spontaneous pain (Bennett and Xie, supra, 1988). In particular, cold allodynia, the sensation of pain from cold stimuli, is one manifestation of altered pain sensation: Bennett model animals frequently lift the paw of the surgical limb off the cold surface, in contrast to control animals.
Bennett surgeries of about 20 minute duration were performed as follows. […]
Chronic drug administration was achieved via an osmotic minipump, which was implanted subcutaneously on the back of the rat one week after the Bennett surgery as described above. […] To assess response to thermal stimuli, rats were placed under a clear plastic chamber (18 cm×29 cm×12.5 cm) on a chilled (0-4° C.) metal floor, which is not noxious to a normal animal, and the time that the surgical paw was raised off of the cold floor recorded over a 5 minute period. […]

[2] = test system: α-2B heterozygous (−/+) and homozygous (−/−) knockout mice; assay: Sulprostone sensitized pain (allodynia), α-2B knockout mice; assay type: in vivo, mouse; settings: intraperitoneal; heterozygous and homozygous α-2B knockout; clonidine 500 ug/kg, Compound 3 100 ug/kg
[3] = Plasma concentration by LC-MS/MS during and after minipump dosing; assay type: in vivo, rat; settings: 0.1 mg/kg/hour minipump for seven days
Experimental: To determine whether the persistent reversal of allodynia was due to the continued presence of drug in the animals, rats were treated for seven days using a subcutaneous osmotic minipump with 0.1 mg/kg/hour Compound 8. Plasma concentrations of Compound 8 were sampled on days 3, 6, 8, 10 and 14 following pump insertion and determined by liquid chromatography-mass spectrometry/mass spectrometry (LC-MS/MS).

[4] = subcutaneous osmotic minipump 0.1 mg/kg/hour, seven days

| Compound | Ki (α-2A) [nM] | efficacy at α-2B relative to brimonidine (rat α-2B (RNG gene)) | EMG response, non-sensitized control rats ([1]; 100 ug/kg/hr subcutaneous minipump, 7 days) | pain (EMG intensity) in sensitized rats after treatment ([1]; 100 ug/kg/hr subcutaneous minipump, 7 days, CRD 20-80 mm Hg) | increased EMG response in sensitized rats ([1]; 100 ug/kg/hr subcutaneous minipump, 7 days, during and following treatment) | return of colorectal allodynia and hyperalgesia ([1]; 4 weeks following cessation of drug treatment) | allodynia during follow-up testing (Chung model rats; after oral 0.3 mg/kg three times a day for three days) | allodynia on the morning of day 4 (Chung model rats; oral 0.3 mg/kg three times a day for three days) | allodynia prior to the first dose of the morning, days 2 and 3 (Chung model rats; oral 0.3 mg/kg three times a day for three days, about 14 hours after the last dose) | reversal of allodynia (Chung model rats; oral gavage, three doses of 0.3 mg/kg per day for three consecutive days) | allodynia alleviated during the period of drug treatment (Chung model rats; [4]) | persistence of analgesic effects after treatment (Chung model rats; [4]) | cold allodynia (Bennett model rats) | analgesic effect in α-2B knockout mice [2] | plasma drug level, day 10 ([3]; day 10 following pump insertion) | plasma drug level, day 14 ([3]; day 14 following pump insertion) |
| --- | --- | --- | --- | --- | --- | --- | --- | --- | --- | --- | --- | --- | --- | --- | --- | --- |
| c1nc(CC2CCc3sccc3C2)c[nH]1 (stereo not shown) [Compound 13] | ~0.08 | about 40% |  |  |  |  |  |  |  |  |  |  |  |  |  |  |
| OCCNC(=S)NCc1cccc(Cl)c1F [Compound 8] |  |  | did not change significantly from pre-treatment levels | 0 to 1.5 | completely alleviated | did not return during the time period tested | allodynia did not increase during a more than three week period of follow-up testing | allodynia was dramatically reduced | complete tactile allodynia | 70-80% | 90-100% | continued for over a month after treatment was concluded | completely alleviated | failed to show analgesic activity | minimal drug levels were detected | no drug remained in the plasma |

Reference: patent publication US7345065B2, “Methods and compositions for alleviating pain” (Allergan, Inc., priority 2002, dated 2008)
